Molecules are shown by their SMILES. Values joined by “and” are separate entries in the source; they are usually repeats but may differ in a detail not shown here. Equal entries are not always repeated.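 Cultured in 96-well plates, cells were exposed to test compound for 48 hours across five concentrations. Abbreviation: GI50, concentration required for 50% inhibition of growth. TGI marks complete inhibition of growth.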 Some results are limits rather than exact numbers.

This is an account of results in PubChem BioAssay (NCI).

Some test systems named below: UACC-257 melanoma; COLO 205 colon; NCI/ADR-RES ovarian; SK-MEL-28 melanoma; 786-0 renal; UO-31 renal; HL-60(TB) leukemia; OVCAR-4 ovarian; SF-295 CNS; NCI-H23 lung.
What all share (experiment): NCI-60 cell line screen, 48 h

Turning to `C=C1CC2(OC1=O)C(=O)N(CCCCCCCN1C(=O)C3(CC(=C)C(=O)O3)c3ccccc31)c1ccccc12` (stereo unspecified), the GI50 in the experiment on UACC-257 melanoma is 2140 nM; with COLO 205 colon, 1380 nM; in the experiment on NCI/ADR-RES ovarian, 1680 nM; with SK-MEL-28 melanoma, 1940 nM; with 786-0 renal, 1490 nM; in the experiment with UO-31 renal it was 3440 nM. Moreover, the GI50 in the experiment on HL-60(TB) leukemia was 992 nM; in the experiment with OVCAR-4 ovarian, 2010 nM; with SF-295 CNS, 10200 nM; in the experiment with NCI-H23 lung, 3710 nM. Moreover, the TGI in the experiment on UACC-257 melanoma amounted to 8760 nM; in the experiment with COLO 205 colon, 5580 nM; with NCI/ADR-RES ovarian it was 8780 nM; in the experiment on SK-MEL-28 melanoma, 7300 nM; in the experiment with 786-0 renal, 5420 nM; with UO-31 renal it was 9950 nM. In addition, the TGI in the experiment on HL-60(TB) leukemia was found to be 3210 nM; in the experiment with OVCAR-4 ovarian, 7600 nM; in the experiment with SF-295 CNS, 25000 nM; in the experiment on NCI-H23 lung, 11600 nM.
Turning to `C[C@@H]1C[C@@H](O)[C@]2(O)O[C@@H]3C[C@@]4(C=O)[C@@H](CC[C@@H]5[C@@H]4CC[C@]4(C)[C@@H](C6=CC(=O)OC6)CC[C@]54O)C[C@H]3O[C@@H]2O1`, the GI50 with UACC-257 melanoma is 71.1 nM and 29.1 nM; in the experiment with COLO 205 colon it was 108 nM and 25 nM; with SK-MEL-28 melanoma, 167 nM and 40.9 nM; in the experiment with 786-0 renal, 21.2 nM and 5 nM; in the experiment on UO-31 renal it was 14.3 nM; with HL-60(TB) leukemia, 15 nM and 6.92 nM. Also, the GI50 with OVCAR-4 ovarian was 5.6 nM; in the experiment on SF-295 CNS it was 36.5 nM and 8.69 nM; in the experiment on NCI-H23 lung it was 28.2 nM and 5 nM. Further, the TGI is 118 nM and 266 nM and 122 nM with UACC-257 melanoma; 82.6 nM and 277 nM and 91.8 nM in the experiment on COLO 205 colon; 118 nM in the experiment with NCI/ADR-RES ovarian; 143 nM and 683 nM and 354 nM in the experiment with SK-MEL-28 melanoma; 12.4 nM and 61.1 nM and 22.2 nM in the experiment on 786-0 renal; 55.9 nM and 45.4 nM in the experiment with UO-31 renal. Besides, the TGI was 28.5 nM and 32.2 nM and 16.9 nM with HL-60(TB) leukemia; 53.1 nM and 12.8 nM with OVCAR-4 ovarian; 61.6 nM and 189 nM and 139 nM in the experiment on SF-295 CNS.
On to `CCN(CC)CCOc1nc2ccc(OC)cc2c2c1-c1ccc(OC)cc1C2=O`, for which the GI50 in the experiment with UACC-257 melanoma was 1400 nM; in the experiment with COLO 205 colon it was 546 nM; in the experiment on NCI/ADR-RES ovarian it was 848 nM; in the experiment with SK-MEL-28 melanoma, 1810 nM; with 786-0 renal, 1390 nM; with UO-31 renal, 361 nM. The GI50 in the experiment on HL-60(TB) leukemia was 1060 nM; in the experiment on OVCAR-4 ovarian it was 1020 nM; with SF-295 CNS, 519 nM; in the experiment on NCI-H23 lung, 1250 nM. Further, the TGI in the experiment with UACC-257 melanoma amounted to 3120 nM; in the experiment with COLO 205 colon it was 1930 nM; in the experiment with NCI/ADR-RES ovarian, 2850 nM; in the experiment with SK-MEL-28 melanoma, 3240 nM; in the experiment on 786-0 renal it was 3110 nM; in the experiment with UO-31 renal, 1850 nM. In addition, the TGI was 3370 nM in the experiment with HL-60(TB) leukemia, 3170 nM with OVCAR-4 ovarian, 1740 nM in the experiment with SF-295 CNS and 3230 nM in the experiment on NCI-H23 lung.
In the case of `CNc1ccc2nc3ccc(=[N+](C)C)cc-3sc2c1`, the GI50 in the experiment with UACC-257 melanoma is 962 nM and 331 nM; in the experiment with COLO 205 colon, 626 nM and 365 nM; with NCI/ADR-RES ovarian it was 389 nM and 298 nM; in the experiment on SK-MEL-28 melanoma, 4250 nM and 1550 nM; in the experiment with 786-0 renal, 3840 nM and 1270 nM; in the experiment with UO-31 renal it was 2740 nM and 2200 nM. Besides, the GI50 in the experiment on HL-60(TB) leukemia is 236 nM and 343 nM; with OVCAR-4 ovarian it was 398 nM and 299 nM; in the experiment on SF-295 CNS, 1350 nM and 411 nM; in the experiment with NCI-H23 lung, 817 nM and 323 nM. Moreover, the TGI was 4520 nM and 1910 nM with UACC-257 melanoma; 3030 nM and 1440 nM with COLO 205 colon; 9170 nM and 7580 nM in the experiment with NCI/ADR-RES ovarian; 14800 nM and 9270 nM in the experiment with SK-MEL-28 melanoma; 17600 nM and 16000 nM in the experiment on 786-0 renal; 19000 nM and 16300 nM with UO-31 renal. Further, the TGI in the experiment with HL-60(TB) leukemia was 1410 nM and 3390 nM; in the experiment on OVCAR-4 ovarian it was 1740 nM and 1900 nM; with SF-295 CNS it was 10300 nM and 3220 nM; in the experiment with NCI-H23 lung it was 7910 nM and 2750 nM.
As for `CC(=O)Nc1ccc2c(c1)c(C1=C(c3cn(C)c4ccccc34)C(=O)NC1=O)cn2C`, the GI50 in the experiment on UACC-257 melanoma is more than 21600 nM; in the experiment with COLO 205 colon, 1300 nM; with NCI/ADR-RES ovarian it was 1580 nM; in the experiment on SK-MEL-28 melanoma, 3620 nM; in the experiment on 786-0 renal, 1280 nM; in the experiment with UO-31 renal, 1160 nM. Also, the GI50 in the experiment on HL-60(TB) leukemia was 913 nM; in the experiment on OVCAR-4 ovarian it was 2540 nM; in the experiment with SF-295 CNS, 1180 nM; in the experiment with NCI-H23 lung, 5450 nM. For the same compound, the TGI with UACC-257 melanoma, in the experiment with COLO 205 colon, with NCI/ADR-RES ovarian, in the experiment with SK-MEL-28 melanoma, in the experiment on 786-0 renal and in the experiment on UO-31 renal was more than 25000 nM throughout. Also, the TGI in the experiment with HL-60(TB) leukemia is 4900 nM; in the experiment with OVCAR-4 ovarian, more than 17600 nM; in the experiment on SF-295 CNS, more than 25000 nM; in the experiment on NCI-H23 lung, more than 25000 nM.
Regarding `COc1ccc(C(=O)/C(Br)=C/C(=O)O)cc1`, the GI50 is 21900 nM in the experiment with UACC-257 melanoma; 15100 nM in the experiment with COLO 205 colon; 18300 nM in the experiment with NCI/ADR-RES ovarian; 10800 nM and 30700 nM in the experiment on 786-0 renal; 20300 nM in the experiment with UO-31 renal; 19100 nM in the experiment on HL-60(TB) leukemia. The GI50 in the experiment on SF-295 CNS was 33500 nM; with NCI-H23 lung, 21300 nM. Further, the TGI was 74400 nM and 85100 nM with UACC-257 melanoma; 34400 nM and 54200 nM with COLO 205 colon; 387000 nM and 116000 nM with NCI/ADR-RES ovarian; 89100 nM and 89400 nM with SK-MEL-28 melanoma; 56100 nM and 99100 nM in the experiment on 786-0 renal; 77700 nM and 103000 nM in the experiment on UO-31 renal. For the same compound, the TGI in the experiment with HL-60(TB) leukemia was 95700 nM and 128000 nM; with OVCAR-4 ovarian, 125000 nM and 120000 nM; with SF-295 CNS, 175000 nM and 140000 nM; with NCI-H23 lung, 112000 nM and 205000 nM.
For `CS(=O)(=O)CCNCc1nc(-c2ccc3ncnc(Nc4ccc(F)c(Cl)c4)c3c2)cs1`, the GI50 in the experiment with UACC-257 melanoma was more than 25000 nM; in the experiment on COLO 205 colon, more than 20500 nM; in the experiment on NCI/ADR-RES ovarian, 13900 nM; with SK-MEL-28 melanoma, more than 20200 nM; in the experiment with 786-0 renal, 22900 nM; with UO-31 renal it was 6810 nM. Moreover, the GI50 was more than 12300 nM in the experiment on HL-60(TB) leukemia, 14700 nM in the experiment with OVCAR-4 ovarian, more than 25000 nM in the experiment with SF-295 CNS and more than 25000 nM in the experiment on NCI-H23 lung. Moreover, the TGI with UACC-257 melanoma, in the experiment with COLO 205 colon, with NCI/ADR-RES ovarian, with SK-MEL-28 melanoma, in the experiment on 786-0 renal and with UO-31 renal was more than 25000 nM in each case. Also, the TGI was more than 17800 nM in the experiment with HL-60(TB) leukemia, more than 25000 nM in the experiment on OVCAR-4 ovarian, more than 25000 nM with SF-295 CNS and more than 25000 nM with NCI-H23 lung.
